Assay results from the supplement of paper PMC8967900.

tested on: RCH-ACV; assay: selective drug sensitivity score (sDSS, relative to normal bone marrow) (sDSS (score)); higher = more potent and effective on the cell line relative to normal bone marrow cells; details: 72 h
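Note: ALL cell lines in 384-well plates, five doses spanning 10,000-fold, each plate scaled between vehicle and 100 µmol/L benzalkonium chloride controls, sDSS an adapted area-under-curve metric.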

SMILES	selective drug sensitivity score
COc1cc(CCc2cc(NC(=O)c3ccc(N4CC(C)NC(C)C4)cc3)n[nH]2)cc(OC)c1 (stereo not drawn) [AZD4547] (top concentration 1000 nM)	3.46
CN(C)C(=O)c1ccc(S(=O)(=O)c2ccc(NC(=O)[C@@](C)(O)C(F)(F)F)c(Cl)c2)cc1 [AZD7545] (top concentration 10000 nM)	3
COc1cc(C)c(/C=C/C(C)=C/C=C/C(C)=C/C(=O)O)c(C)c1C [Acitretin] (top concentration 10000 nM)	-1.6
CCC1(c2ccc(N)cc2)CCC(=O)NC1=O (stereo not drawn) [Aminoglutethimide] (top concentration 10000 nM)	0
CNC(=O)c1ccc(N2C(=S)N(c3cnc(C#N)c(C(F)(F)F)c3)C(=O)C23CCC3)cc1F [Apalutamide] (top concentration 10000 nM)	0
N#CC1(c2ccc(NC(=O)c3cccnc3NCc3ccncc3)cc2)CCCC1 [Apatinib] (top concentration 10000 nM)	1.1
Cc1nc2cccc(N)c2c(=O)n1C1CCC(=O)NC1=O (stereo not drawn) [Avadomide (CC122)] (top concentration 10000 nM)	10.5
Nc1nc(Nc2ccc3c(c2)CC[C@@H](N2CCCC2)CC3)nn1-c1cc2c(nn1)-c1ccccc1CCC2 [BGB324] (top concentration 10000 nM)	5.02
CC1(C)C(C(=O)Nc2ccc(S(=O)(=O)c3ccc(NC(=O)C4C(C)(C)C4(C)C)cc3)cc2)C1(C)C [BRD7116] (top concentration 10000 nM)	-0.14
CCS(=O)(=O)N1CC(CC#N)(n2cc(-c3ncnc4[nH]ccc34)cn2)C1 [Baricitinib] (top concentration 2500 nM)	-1.94

tested on: TANOUE; assay: as above; details: 72 h

SMILES	selective drug sensitivity score
CNC(=O)c1ccc(C)c(-n2c(C)cc(OCc3ccc(F)cc3F)c(Br)c2=O)c1 (top concentration 1000 nM)	0
CONC(=O)c1ccccc1Nc1cc(Nc2cc(C)nn2C(C)C)ncc1Cl (top concentration 1000 nM)	0.36
CCOc1ccn(-c2ccc(F)cc2)c(=O)c1C(=O)Nc1ccc(Oc2ccnc(N)c2Cl)c(F)c1 (top concentration 2500 nM)	0
CC[C@@H]1[C@H](F)C(=O)N[C@@H]1COc1nccc2cc(C(N)=O)c(OC)cc12 (top concentration 10000 nM)	-0.22
C[C@H]1C[C@@H](n2c(Nc3ccc(OC(F)(F)F)cc3)nc3cc(CCC(=O)O)ccc32)CC(C)(C)C1 (top concentration 10000 nM)	-0.14
O=C(NCc1ccncc1)C12CC3CC(C1)CC(c1ccc(Cl)cc1)(C3)C2 (top concentration 50000 nM)	-0.72
O=C(O)c1ccc(CN2CCC(CN[C@@H]3C[C@H]3c3ccccc3)CC2)cc1 (top concentration 100000 nM)	-0.62
COc1cc(N2CCN(C)CC2)ccc1Nc1nccc(-c2cn(C)c3cnccc23)n1 [AZ191] (top concentration 10000 nM)	-4.62
Cc1cc(Nc2nc(N[C@@H](C)c3ncc(F)cn3)ncc2Cl)[nH]n1 [AZD1480] (top concentration 1000 nM)	-4.28
COc1cc(CCc2cc(NC(=O)c3ccc(N4CC(C)NC(C)C4)cc3)n[nH]2)cc(OC)c1 (stereo not drawn) [AZD4547] (top concentration 1000 nM)	-0.14
CN(C)C(=O)c1ccc(S(=O)(=O)c2ccc(NC(=O)[C@@](C)(O)C(F)(F)F)c(Cl)c2)cc1 [AZD7545] (top concentration 10000 nM)	3.4
COc1cc(C)c(/C=C/C(C)=C/C=C/C(C)=C/C(=O)O)c(C)c1C [Acitretin] (top concentration 10000 nM)	-1.6
CCC1(c2ccc(N)cc2)CCC(=O)NC1=O (stereo not drawn) [Aminoglutethimide] (top concentration 10000 nM)	0
CNC(=O)c1ccc(N2C(=S)N(c3cnc(C#N)c(C(F)(F)F)c3)C(=O)C23CCC3)cc1F [Apalutamide] (top concentration 10000 nM)	0.1
N#CC1(c2ccc(NC(=O)c3cccnc3NCc3ccncc3)cc2)CCCC1 [Apatinib] (top concentration 10000 nM)	0
Cc1nc2cccc(N)c2c(=O)n1C1CCC(=O)NC1=O (stereo not drawn) [Avadomide (CC122)] (top concentration 10000 nM)	0
Nc1nc(Nc2ccc3c(c2)CC[C@@H](N2CCCC2)CC3)nn1-c1cc2c(nn1)-c1ccccc1CCC2 [BGB324] (top concentration 10000 nM)	-3.88
CC1(C)C(C(=O)Nc2ccc(S(=O)(=O)c3ccc(NC(=O)C4C(C)(C)C4(C)C)cc3)cc2)C1(C)C [BRD7116] (top concentration 10000 nM)	-0.24
CCS(=O)(=O)N1CC(CC#N)(n2cc(-c3ncnc4[nH]ccc34)cn2)C1 [Baricitinib] (top concentration 2500 nM)	-1.94

tested on: TMD5; assay: as above; details: 72 h

SMILES	selective drug sensitivity score
CNC(=O)c1ccc(C)c(-n2c(C)cc(OCc3ccc(F)cc3F)c(Br)c2=O)c1 (top concentration 1000 nM)	0
CONC(=O)c1ccccc1Nc1cc(Nc2cc(C)nn2C(C)C)ncc1Cl (top concentration 1000 nM)	-0.94
CCOc1ccn(-c2ccc(F)cc2)c(=O)c1C(=O)Nc1ccc(Oc2ccnc(N)c2Cl)c(F)c1 (top concentration 2500 nM)	0
CC[C@@H]1[C@H](F)C(=O)N[C@@H]1COc1nccc2cc(C(N)=O)c(OC)cc12 (top concentration 10000 nM)	-1.32
C[C@H]1C[C@@H](n2c(Nc3ccc(OC(F)(F)F)cc3)nc3cc(CCC(=O)O)ccc32)CC(C)(C)C1 (top concentration 10000 nM)	-0.14
O=C(NCc1ccncc1)C12CC3CC(C1)CC(c1ccc(Cl)cc1)(C3)C2 (top concentration 50000 nM)	0.68
O=C(O)c1ccc(CN2CCC(CN[C@@H]3C[C@H]3c3ccccc3)CC2)cc1 (top concentration 100000 nM)	-0.62
COc1cc(N2CCN(C)CC2)ccc1Nc1nccc(-c2cn(C)c3cnccc23)n1 [AZ191] (top concentration 10000 nM)	-4.32
Cc1cc(Nc2nc(N[C@@H](C)c3ncc(F)cn3)ncc2Cl)[nH]n1 [AZD1480] (top concentration 1000 nM)	-1.98
COc1cc(CCc2cc(NC(=O)c3ccc(N4CC(C)NC(C)C4)cc3)n[nH]2)cc(OC)c1 (stereo not drawn) [AZD4547] (top concentration 1000 nM)	-0.14
CN(C)C(=O)c1ccc(S(=O)(=O)c2ccc(NC(=O)[C@@](C)(O)C(F)(F)F)c(Cl)c2)cc1 [AZD7545] (top concentration 10000 nM)	-0.2
COc1cc(C)c(/C=C/C(C)=C/C=C/C(C)=C/C(=O)O)c(C)c1C [Acitretin] (top concentration 10000 nM)	-1.6
CCC1(c2ccc(N)cc2)CCC(=O)NC1=O (stereo not drawn) [Aminoglutethimide] (top concentration 10000 nM)	0
CNC(=O)c1ccc(N2C(=S)N(c3cnc(C#N)c(C(F)(F)F)c3)C(=O)C23CCC3)cc1F [Apalutamide] (top concentration 10000 nM)	0
N#CC1(c2ccc(NC(=O)c3cccnc3NCc3ccncc3)cc2)CCCC1 [Apatinib] (top concentration 10000 nM)	0
Cc1nc2cccc(N)c2c(=O)n1C1CCC(=O)NC1=O (stereo not drawn) [Avadomide (CC122)] (top concentration 10000 nM)	3.5
Nc1nc(Nc2ccc3c(c2)CC[C@@H](N2CCCC2)CC3)nn1-c1cc2c(nn1)-c1ccccc1CCC2 [BGB324] (top concentration 10000 nM)	-2.98
CC1(C)C(C(=O)Nc2ccc(S(=O)(=O)c3ccc(NC(=O)C4C(C)(C)C4(C)C)cc3)cc2)C1(C)C [BRD7116] (top concentration 10000 nM)	0.66
CCS(=O)(=O)N1CC(CC#N)(n2cc(-c3ncnc4[nH]ccc34)cn2)C1 [Baricitinib] (top concentration 2500 nM)	-1.94
